Source: ChEMBL document CHEMBL1201862, “PubChem BioAssay data set” (2004)
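Tested at 5 concentrations; 48 h exposure; 96-well plates; endpoints linearly interpolated, else capped at highest concentration. Here, GI50 denotes the concentration required for 50% inhibition of growth.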 Active and inactive are the calls of the source. Cut-off read from the data, not from the text of the source: active = GI50 up to about 1.1 µM and inactive = higher.

Columns and labels:
Assay in all cases: DTP human tumour cell line panel, 48 h
786-0 = tested on: 786-0
A498 = tested on: A498
CCRF-CEM = tested on: CCRF-CEM
COLO 205 = tested on: COLO 205
HCC 2998 = tested on: HCC 2998
HCT-116 = tested on: HCT-116
HOP-62 = tested on: HOP-62
HT-29 = tested on: HT-29
IGROV-1 = tested on: IGROV-1
MDA-N = tested on: MDA-N
NCI/ADR-RES = tested on: NCI/ADR-RES
OVCAR-3 = tested on: OVCAR-3
OVCAR-8 = tested on: OVCAR-8
SF-539 = tested on: SF-539
SK-MEL-28 = tested on: SK-MEL-28
SK-MEL-5 = tested on: SK-MEL-5
U-251 = tested on: U-251
UACC-257 = tested on: UACC-257
UO-31 = tested on: UO-31
SNB-75 = tested on: SNB-75

SMILES	GI50 (786-0)	GI50 (A498)	GI50 (CCRF-CEM)	GI50 (COLO 205)	GI50 (HCC 2998)	GI50 (HCT-116)	GI50 (HOP-62)	GI50 (HT-29)	GI50 (IGROV-1)	GI50 (MDA-N)	GI50 (NCI/ADR-RES)	GI50 (OVCAR-3)	GI50 (OVCAR-8)	GI50 (SF-539)	GI50 (SK-MEL-28)	GI50 (SK-MEL-5)	GI50 (U-251)	GI50 (UACC-257)	GI50 (UO-31)	GI50 (SNB-75)
C[C@H](NC(=O)C(C)(Cc1ccc(O)cn1)NC(=O)c1ccccc1)c1ccccc1 (some centres not stated)	> 100 µM (inactive)	> 100 µM (inactive)	> 100 µM (inactive)	> 100 µM (inactive)	> 100 µM (inactive)	> 100 µM (inactive)	> 100 µM (inactive)	> 100 µM (inactive)	> 100 µM (inactive)	> 100 µM (inactive)	> 100 µM (inactive)	> 100 µM (inactive)	> 100 µM (inactive)	> 100 µM (inactive)	> 100 µM (inactive)	> 100 µM (inactive)	> 100 µM (inactive)	> 100 µM (inactive)	> 100 µM (inactive)	–
CCOC(=O)/C(C[C@H]1OC(C)(C)O[C@@H]1[C@H]1COC(C)(C)O1)=N/O	> 100 µM (inactive)	> 100 µM (inactive)	> 100 µM (inactive)	> 100 µM (inactive)	> 100 µM (inactive)	> 100 µM (inactive)	> 100 µM (inactive)	> 100 µM (inactive)	> 100 µM (inactive)	> 100 µM (inactive)	> 100 µM (inactive)	> 100 µM (inactive)	> 100 µM (inactive)	> 100 µM (inactive)	> 100 µM (inactive)	> 100 µM (inactive)	> 100 µM (inactive)	> 100 µM (inactive)	> 100 µM (inactive)	–
C[N+](C)(N)Cc1nc(-c2ccc(Cl)cc2)no1	> 100 µM (inactive)	70 µM (inactive)	94.8 µM (inactive)	> 100 µM (inactive)	–	> 100 µM (inactive)	88.9 µM (inactive)	> 100 µM (inactive)	> 100 µM (inactive)	> 100 µM (inactive)	> 100 µM (inactive)	> 100 µM (inactive)	> 100 µM (inactive)	> 100 µM (inactive)	> 100 µM (inactive)	75.3 µM (inactive)	> 100 µM (inactive)	> 100 µM (inactive)	–	> 100 µM (inactive)
CN(C)CCN1C(=O)c2cccc3cc([N+](=O)[O-])cc(c23)C1=O [MITONAFIDE]	0.195 µM (active)	0.167 µM (active)	0.163 µM (active)	0.191 µM (active)	1.11 µM (active)	0.261 µM (active)	0.146 µM (active)	0.301 µM (active)	0.5 µM (active)	1.49 µM (inactive)	–	1.37 µM (inactive)	0.252 µM (active)	0.155 µM (active)	1.34 µM (inactive)	0.237 µM (active)	0.213 µM (active)	0.838 µM (active)	0.248 µM (active)	0.194 µM (active)
O=C(COC(c1ccc(F)cc1)c1ccc(F)cc1)N1CCN(CCCc2ccccc2)CC1	3.94 µM (inactive)	3.08 µM (inactive)	7.62 µM (inactive)	1.79 µM (inactive)	3.59 µM (inactive)	2.88 µM (inactive)	6.52 µM (inactive)	3.17 µM (inactive)	5.37 µM (inactive)	3.74 µM (inactive)	2.72 µM (inactive)	4.29 µM (inactive)	3.54 µM (inactive)	5.2 µM (inactive)	15.6 µM (inactive)	2.65 µM (inactive)	4.16 µM (inactive)	3.38 µM (inactive)	1.7 µM (inactive)	–
CCN(CC)C(=S)SC(C(=O)Nc1nnc(-c2ccccc2)o1)c1ccccc1 (configuration not stated)	15.8 µM (inactive)	18.2 µM (inactive)	–	30.3 µM (inactive)	–	16 µM (inactive)	20.9 µM (inactive)	17.9 µM (inactive)	15.3 µM (inactive)	16.6 µM (inactive)	4.24 µM (inactive)	15.2 µM (inactive)	28.8 µM (inactive)	25.8 µM (inactive)	17.9 µM (inactive)	14.6 µM (inactive)	16.1 µM (inactive)	22.9 µM (inactive)	10.1 µM (inactive)	31.9 µM (inactive)
COc1ccc2cc(/C=N\NC(=O)Nc3ccc([N+](=O)[O-])cc3)ccc2c1	8.59 µM (inactive)	–	> 10 µM (inactive)	13.1 µM (inactive)	14.2 µM (inactive)	11.6 µM (inactive)	14.8 µM (inactive)	11.5 µM (inactive)	13.8 µM (inactive)	13 µM (inactive)	13.6 µM (inactive)	18.4 µM (inactive)	11.7 µM (inactive)	8.24 µM (inactive)	14.6 µM (inactive)	11.7 µM (inactive)	13.6 µM (inactive)	14.6 µM (inactive)	13.6 µM (inactive)	13.2 µM (inactive)
COc1ccc(C(=C(Cl)c2ccccc2)c2ccc(OC)cc2)cc1	> 100 µM (inactive)	> 100 µM (inactive)	> 100 µM (inactive)	> 100 µM (inactive)	–	48.1 µM (inactive)	> 100 µM (inactive)	11.9 µM (inactive)	> 100 µM (inactive)	> 100 µM (inactive)	> 100 µM (inactive)	> 100 µM (inactive)	> 100 µM (inactive)	> 100 µM (inactive)	> 100 µM (inactive)	79.3 µM (inactive)	> 100 µM (inactive)	86.5 µM (inactive)	> 100 µM (inactive)	–
COc1nc(C#CCCCC#N)nc(OC)n1	11.1 µM (inactive)	20.7 µM (inactive)	–	29.9 µM (inactive)	–	8.79 µM (inactive)	24.2 µM (inactive)	24.3 µM (inactive)	17.3 µM (inactive)	15.7 µM (inactive)	28.5 µM (inactive)	13.3 µM (inactive)	21.2 µM (inactive)	20.5 µM (inactive)	15.5 µM (inactive)	13.3 µM (inactive)	13.4 µM (inactive)	18.9 µM (inactive)	11.1 µM (inactive)	19.5 µM (inactive)
COc1ccc(NC(=O)CSC(=O)c2ccccc2)c(SCCSSCCSc2cc(OC)ccc2NC(=O)CSC(=O)c2ccccc2)c1	> 100 µM (inactive)	> 100 µM (inactive)	79.6 µM (inactive)	11 µM (inactive)	–	48.8 µM (inactive)	> 100 µM (inactive)	> 100 µM (inactive)	67.5 µM (inactive)	> 100 µM (inactive)	> 100 µM (inactive)	9.57 µM (inactive)	> 100 µM (inactive)	> 100 µM (inactive)	–	> 100 µM (inactive)	> 100 µM (inactive)	> 100 µM (inactive)	73.6 µM (inactive)	> 100 µM (inactive)
COc1ccc(-c2nc(O)c3ccccc3n2)cc1OC	36.1 µM (inactive)	–	> 100 µM (inactive)	> 100 µM (inactive)	> 100 µM (inactive)	> 100 µM (inactive)	33.8 µM (inactive)	> 100 µM (inactive)	24.6 µM (inactive)	> 100 µM (inactive)	28.2 µM (inactive)	> 100 µM (inactive)	24.4 µM (inactive)	37.8 µM (inactive)	–	> 100 µM (inactive)	23.1 µM (inactive)	> 100 µM (inactive)	> 100 µM (inactive)	23.8 µM (inactive)
O=c1c2cc([N+](=O)[O-])cnc2sn1-c1ccc(Oc2ccccc2)cc1	43.5 µM (inactive)	–	26.9 µM (inactive)	> 100 µM (inactive)	> 100 µM (inactive)	25.2 µM (inactive)	34.2 µM (inactive)	62.5 µM (inactive)	82.8 µM (inactive)	78 µM (inactive)	32.8 µM (inactive)	36 µM (inactive)	82.8 µM (inactive)	23.3 µM (inactive)	22.4 µM (inactive)	88.5 µM (inactive)	29.9 µM (inactive)	> 100 µM (inactive)	56.6 µM (inactive)	51.6 µM (inactive)
Cc1ccc(N)cc1.O=S(=O)(O)/C(=C\c1ccccc1)c1ccccc1	> 100 µM (inactive)	> 100 µM (inactive)	> 100 µM (inactive)	> 100 µM (inactive)	–	> 100 µM (inactive)	> 100 µM (inactive)	> 100 µM (inactive)	> 100 µM (inactive)	> 100 µM (inactive)	> 100 µM (inactive)	> 100 µM (inactive)	> 100 µM (inactive)	> 100 µM (inactive)	> 100 µM (inactive)	93.3 µM (inactive)	> 100 µM (inactive)	> 100 µM (inactive)	70.6 µM (inactive)	> 100 µM (inactive)
Nc1nc(=O)c2cc(NCc3ccc(C(=O)NC(CCC(=O)O)C(=O)O)cc3)ccc2[nH]1 (configuration not stated)	> 100 µM (inactive)	–	> 100 µM (inactive)	> 100 µM (inactive)	39.8 µM (inactive)	> 100 µM (inactive)	> 100 µM (inactive)	> 100 µM (inactive)	> 100 µM (inactive)	> 100 µM (inactive)	> 100 µM (inactive)	> 100 µM (inactive)	68.2 µM (inactive)	6.65 µM (inactive)	> 100 µM (inactive)	> 100 µM (inactive)	> 100 µM (inactive)	> 100 µM (inactive)	15.1 µM (inactive)	> 100 µM (inactive)
O=C(NC1CCC(=O)N1C(=O)OCc1ccccc1)OCc1ccccc1 (configuration not stated)	> 100 µM (inactive)	–	–	> 100 µM (inactive)	> 100 µM (inactive)	–	> 100 µM (inactive)	> 100 µM (inactive)	> 100 µM (inactive)	> 100 µM (inactive)	> 100 µM (inactive)	> 100 µM (inactive)	> 100 µM (inactive)	> 100 µM (inactive)	> 100 µM (inactive)	> 100 µM (inactive)	> 100 µM (inactive)	> 100 µM (inactive)	> 100 µM (inactive)	77.6 µM (inactive)
